Test results: PubChem BioAssay (NCI)
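The concentration for 50% growth inhibition is given as GI50. At the TGI there is no net growth.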

How the values were obtained:
Assay in all cases: DTP human tumour cell line panel, 384-well format
SF-539 CNS = tested on: SF-539 CNS
SF-295 CNS = tested on: SF-295 CNS
SNB-75 CNS = tested on: SNB-75 CNS
EKVX NSCLC = tested on: EKVX NSCLC
HCT-15 colon = tested on: HCT-15 colon
SW-620 colon = tested on: SW-620 colon
TK-10 renal = tested on: TK-10 renal
UACC-257 melanoma = tested on: UACC-257 melanoma
OVCAR-3 ovarian = tested on: OVCAR-3 ovarian
PC-3 prostate = tested on: PC-3 prostate
KM12 colon = tested on: KM12 colon
ACHN renal = tested on: ACHN renal
DU-145 prostate = tested on: DU-145 prostate
A498 renal = tested on: A498 renal
HS 578T breast = tested on: HS 578T breast
NCI-H23 lung = tested on: NCI-H23 lung
HL-60(TB) leukemia = tested on: HL-60(TB) leukemia
SR leukemia = tested on: SR leukemia
NCI/ADR-RES ovarian = tested on: NCI/ADR-RES ovarian
MDA-MB-435 melanoma = tested on: MDA-MB-435 melanoma
IGROV1 ovarian = tested on: IGROV1 ovarian
MALME-3M melanoma = tested on: MALME-3M melanoma
SN12C renal = tested on: SN12C renal
M14 melanoma = tested on: M14 melanoma
NCI-H522 lung = tested on: NCI-H522 lung
UO-31 renal = tested on: UO-31 renal
K-562 leukemia = tested on: K-562 leukemia
RXF 393 renal = tested on: RXF 393 renal
A549 NSCLC = tested on: A549 NSCLC
CAKI-1 renal = tested on: CAKI-1 renal
SF-268 CNS = tested on: SF-268 CNS
MDA-MB-468 breast = tested on: MDA-MB-468 breast
MDA-MB-231 breast = tested on: MDA-MB-231 breast
OVCAR-4 ovarian = tested on: OVCAR-4 ovarian
COLO 205 colon = tested on: COLO 205 colon
NCI-H226 lung = tested on: NCI-H226 lung
SK-MEL-5 melanoma = tested on: SK-MEL-5 melanoma
NCI-H460 NSCLC = tested on: NCI-H460 NSCLC
RPMI-8226 leukemia = tested on: RPMI-8226 leukemia
MCF7 breast = tested on: MCF7 breast
SK-OV-3 ovarian = tested on: SK-OV-3 ovarian
T-47D breast = tested on: T-47D breast
BT-549 breast = tested on: BT-549 breast
786-0 renal = tested on: 786-0 renal
UACC-62 melanoma = tested on: UACC-62 melanoma
NCI-H322M lung = tested on: NCI-H322M lung
LOX IMVI melanoma = tested on: LOX IMVI melanoma
HCC-2998 colon = tested on: HCC-2998 colon
OVCAR-8 ovarian = tested on: OVCAR-8 ovarian
U251 glioblastoma = tested on: U251 glioblastoma
HT29 colon = tested on: HT29 colon
SK-MEL-28 melanoma = tested on: SK-MEL-28 melanoma
SNB-19 CNS = tested on: SNB-19 CNS
CCRF-CEM leukemia = tested on: CCRF-CEM leukemia
HOP-62 NSCLC = tested on: HOP-62 NSCLC
HOP-92 NSCLC = tested on: HOP-92 NSCLC
MOLT-4 leukemia = tested on: MOLT-4 leukemia
HCT-116 colon = tested on: HCT-116 colon

## O=c1cc(-c2cccc3c2Sc2ccccc2S3)oc(N2CCOCC2)c1
SF-539 CNS
  GI50: 12.2 µM
  TGI: 24.9 µM
SF-295 CNS
  GI50: 13.2 µM
  TGI: 26.1 µM
SNB-75 CNS
  GI50: 10.7 µM
  TGI: 22.7 µM
EKVX NSCLC
  GI50: 11.1 µM
  TGI: 23.2 µM
HCT-15 colon
  GI50: 7.02 µM
  TGI: 19.8 µM
SW-620 colon
  GI50: 15.9 µM
  TGI: 29.6 µM
TK-10 renal
  GI50: 12 µM
  TGI: 24.4 µM
UACC-257 melanoma
  GI50: 10.2 µM
  TGI: 21.9 µM
OVCAR-3 ovarian
  GI50: 12.7 µM
  TGI: 25.5 µM
PC-3 prostate
  GI50: 6.39 µM
  TGI: 19.3 µM
KM12 colon
  GI50: 5.64 µM
  TGI: 17.7 µM
ACHN renal
  GI50: 14.8 µM
  TGI: 28.1 µM
DU-145 prostate
  GI50: 12.9 µM
  TGI: 25.7 µM
A498 renal
  GI50: 4.26 µM
  TGI: 15.3 µM
HS 578T breast
  GI50: 6.58 µM
  TGI: 18.5 µM
NCI-H23 lung
  GI50: 16 µM
  TGI: 29.6 µM
HL-60(TB) leukemia
  GI50: 1520 nM
  TGI: 3.17 µM
SR leukemia
  GI50: 2530 nM
  TGI: 4.95 µM
NCI/ADR-RES ovarian
  GI50: 11.1 µM
  TGI: 23.2 µM
MDA-MB-435 melanoma
  GI50: 5.13 µM
  TGI: 16.3 µM
IGROV1 ovarian
  GI50: 7.75 µM
  TGI: 20.2 µM
MALME-3M melanoma
  GI50: 6.31 µM
  TGI: 19.2 µM
SN12C renal
  GI50: 11.5 µM
  TGI: 23.8 µM
M14 melanoma
  GI50: 10.6 µM
  TGI: 22.5 µM
NCI-H522 lung
  GI50: 12.4 µM
  TGI: 24.9 µM
UO-31 renal
  GI50: 6.91 µM
  TGI: 20.2 µM
K-562 leukemia
  GI50: 5.04 µM
  TGI: 16.3 µM
RXF 393 renal
  GI50: 4.89 µM
  TGI: 17.6 µM
A549 NSCLC
  GI50: 11.4 µM
  TGI: 23.8 µM
CAKI-1 renal
  GI50: 5.15 µM
  TGI: 18.4 µM
SF-268 CNS
  GI50: 12.1 µM
  TGI: 24.7 µM
MDA-MB-468 breast
  GI50: 8.61 µM
  TGI: 20.7 µM
MDA-MB-231 breast
  GI50: 11.3 µM
  TGI: 23.5 µM
OVCAR-4 ovarian
  GI50: 12.9 µM
  TGI: 25.6 µM
COLO 205 colon
  GI50: 15.4 µM
  TGI: 28.9 µM
NCI-H226 lung
  GI50: 12.7 µM
  TGI: 25.3 µM
SK-MEL-5 melanoma
  GI50: 10.7 µM
  TGI: 22.7 µM
NCI-H460 NSCLC
  GI50: 14.4 µM
  TGI: 28 µM
RPMI-8226 leukemia
  GI50: 3.35 µM
  TGI: 13.9 µM
MCF7 breast
  GI50: 6.98 µM
  TGI: 19.7 µM
SK-OV-3 ovarian
  GI50: 15.2 µM
  TGI: 28.7 µM
T-47D breast
  GI50: 10.1 µM
  TGI: 21.8 µM
BT-549 breast
  GI50: 7.8 µM
  TGI: 20.5 µM
786-0 renal
  GI50: 10.6 µM
  TGI: 22.6 µM
UACC-62 melanoma
  GI50: 10.4 µM
  TGI: 22.3 µM
NCI-H322M lung
  GI50: 11 µM
  TGI: 23.1 µM
LOX IMVI melanoma
  GI50: 12.9 µM
  TGI: 25.6 µM
HCC-2998 colon
  GI50: 2980 nM
  TGI: 11.6 µM
OVCAR-8 ovarian
  GI50: 12.8 µM
  TGI: 25.7 µM
U251 glioblastoma
  GI50: 12.7 µM
  TGI: 25.5 µM
HT29 colon
  GI50: 12 µM
  TGI: 24.7 µM
SK-MEL-28 melanoma
  GI50: 10.4 µM
  TGI: 22.2 µM
SNB-19 CNS
  GI50: 13.9 µM
  TGI: 26.9 µM
CCRF-CEM leukemia
  GI50: 7.99 µM
  TGI: 20.5 µM
HOP-62 NSCLC
  GI50: 13.6 µM
  TGI: 26.6 µM
HOP-92 NSCLC
  GI50: 10.1 µM
  TGI: 21.7 µM
MOLT-4 leukemia
  GI50: 7.2 µM
  TGI: 19.9 µM
HCT-116 colon
  GI50: 9.36 µM
  TGI: 21.6 µM
